From patent US9763445B2, “Safened herbicidal compositions comprising a pyridine carboxylic acid herbicide” (Dow AgroSciences, LLC, priority 2014, dated 2017)

How the values were obtained:
[1] = system: green foxtail (SETVI); assay: Postemergence greenhouse trial, % visual injury on green foxtail; assay type: in vivo, Setaria viridis
[2] = system: poinsettia (EPHHL); assay: Postemergence greenhouse trial, % visual injury on poinsettia; assay type: in vivo, Euphorbia heterophylla; settings: alone, 35 g/ha
Method: (§1) Seeds of the desired test plant species were planted in Sun Gro MetroMix® 306 planting mixture, which typically has a pH of 6.0 to 6.8 and an organic matter content of about 30 percent, in plastic pots with a surface area of 103.2 square centimeters (cm^2). When required to ensure good germination and healthy plants, a fungicide treatment and/or other chemical or physical treatment was applied. The plants were grown for 7-36 days (d) in a greenhouse with an approximate 14-hour (h) photoperiod which was maintained at about 23° C. during the day and 22° C. during the night. Nutrients and water were added on a regular basis and supplemental lighting was provided with overhead metal halide 1000-Watt lamps as necessary. The plants were employed for testing when they reached the second or third true leaf stage.
(§2) Weighed amounts of technical material were dissolved in a volume of 97:3 volume per volume (v/v) acetone/dimethyl sulfoxide (DMSO) to stock solutions. […] The concentrated stock solutions were diluted with an aqueous mixture of 1.5% v/v of Agri-dex crop oil concentrate to provide the appropriate application rates. Compound requirements are based upon a 12 milliliter (mL) application volume at a rate of 187 liters per hectare (L/ha). Stocks solutions of the safeners were prepared following the same procedure. […]
(§3) The treated plants and control plants were placed in a greenhouse as described above and watered by sub-irrigation to prevent wash-off of the test compounds. After 20-22 d, the condition of the test plants as compared with that of the control plants was determined visually and scored on a scale of 0 to 100 percent where 0 corresponds to no injury and 100 corresponds to complete kill. The condition of the test plants was compared with that of the control plants as determined visually and scored on a scale of 0 to 100 percent, where 0 corresponds to no injury and 100 corresponds to complete kill. […]
The safener cloquintocet-mexyl was combined with compound 1, compound 2, compound 4, compound 5, and compound 6, and applied to corn/maize (ZEAMX) and spring wheat (TRZAS) and the phytotoxicity of the herbicidal compositions was measured. In addition, the efficacy of the herbicidal composition on velvetleaf (ABUTH, Abutilon theophrasti), pigweed (AMARE, Amaranthus retroflexus), winter rape (BRSNW, Brassica napus), lambsquarters (CHEAL, Chenopodium album), thistle (CIRAR, Cirsium arvense), nutsedge (CYPES, Cyperus esculentus), poinsettia (EPHHL, Euphorbia heterophylla), wild buckwheat (POLCO, Polygonum convolvulus), giant foxtail (SETFA, Setaria faberi), and chickweed (STEME, Stellaria media) was evaluated. […]

[3] = system: common sunflower (HELAN); assay: Postemergence greenhouse trial, % visual injury on common sunflower; assay type: in vivo, Helianthus annuus
Method: as §1
(§4) Weighed amounts of technical material were dissolved in a volume of 97:3 volume per volume (v/v) acetone/dimethyl sulfoxide (DMSO) to stock solutions. […] The concentrated stock solutions were diluted with an aqueous mixture of 1.5% v/v of Agri-dex crop oil concentrate to provide the appropriate application rates. Compound requirements are based upon a 12 milliliter (mL) application volume at a rate of 187 liters per hectare (L/ha). Stocks solutions of the safeners were prepared following the same procedure. Spray solutions of the safeners and experimental compound mixtures were prepared by adding the stock solutions to the appropriate amount of dilution solution to form a 12 mL spray solution in two-way combinations. Formulated compounds were applied to the plant material with an overhead Mandel track sprayer equipped with 8002E nozzles calibrated to deliver 187 L/ha over an application area of 0.503 square meters (m^2) at a spray height of 18 inches (43 centimeters (cm)) above average plant canopy. Control plants were sprayed in the same manner with the solvent blank. All herbicide application (component a) rates are in g ae/ha and all safener (component b) rates are in g ai/ha.
(§5) The treated plants and control plants were placed in a greenhouse as described above and watered by sub-irrigation to prevent wash-off of the test compounds. After 20-22 d, the condition of the test plants as compared with that of the control plants was determined visually and scored on a scale of 0 to 100 percent where 0 corresponds to no injury and 100 corresponds to complete kill. The condition of the test plants was compared with that of the control plants as determined visually and scored on a scale of 0 to 100 percent, where 0 corresponds to no injury and 100 corresponds to complete kill. Colby's equation was used to determine the herbicidal effects expected from the mixtures.
(§6) The safener cloquintocet-acid and a number of agriculturally acceptable esters and salts (-mexyl, -dimethylammonium salt and -triethylammonium salt) were combined in varying ratios with compound 1 and applied to spring wheat (TRZAS), winter wheat (TRZAW), and spring barley (HORVS), and the phytotoxicity of the herbicidal compositions was measured. In addition, the efficacy of the herbicidal composition on pigweed (AMARE, Amaranthus retroflexus), nutsedge (CYPES, Cyperus esculentus), common sunflower (HELAN, Helianthus annuus), and common sorghum (SORVU, Sorghum vulgare).

[4] = system: common sorghum (SORVU); assay: Postemergence greenhouse trial, % visual injury on common sorghum; assay type: in vivo, Sorghum vulgare; settings: for % visual injury, observed (Ob): SORVU
Method: as §1, §4
as §5, with “mixtures. […]” for “mixtures.”
as §6

[5] = system: giant foxtail (SETFA); assay: Postemergence greenhouse trial, % visual injury on giant foxtail; assay type: in vivo, Setaria faberi; settings: alone, 35 g/ha
Method: as §1
as §2, with “(L/ha).” for “(L/ha). Stocks solutions of the safeners were prepared following the same procedure.”
as §3
The safener cloquintocet-mexyl was combined with compound 1, compound 2, compound 4, compound 5, and compound 6, and applied to corn/maize (ZEAMX) and spring wheat (TRZAS) and the phytotoxicity of the herbicidal compositions was measured. […]

Nc1c(F)c(-c2ccc3cc[nH]c3c2F)nc(C(=O)OCc2ccccc2)c1Cl [compound 2]
% visual injury, observed (Ob) ([1]; compound 2 35 + CQC-m 0 g/ha): 100% | % visual injury, observed (Ob) ([1]; compound 2 70 + CQC-m 0 g/ha): 97% | % visual injury, observed (Ob) ([1]; compound 2 140 + CQC-m 0 g/ha): 98% | % visual injury, Ob [2]: 100%

Nc1c(F)c(-c2ccc3cc[nH]c3c2F)nc(C(=O)O)c1Cl [compound 1]
% visual injury, observed (Ob) ([3]; compound 1 alone 20 g/ha): 98% | % visual injury, observed (Ob) ([3]; compound 1 alone 40 g/ha): 100% | % visual injury, observed (Ob) ([4]; compound 1 alone 20 g/ha): 18% | % visual injury, observed (Ob) ([4]; compound 1 alone 40 g/ha): 68%

CCCCCC(C)OC(=O)COc1ccc(Cl)c2cccnc12 (stereo not shown) [CQC-m, cloquintocet-mexyl, reference compound]
% visual injury, Ob [5]: 0% | % visual injury, observed (Ob) ([3]; safener alone 2.5 g/ha): 0% | % visual injury, observed (Ob) ([3]; safener alone 5 g/ha): 0% | % visual injury, observed (Ob) ([3]; safener alone 10 g/ha): 0% | % visual injury, observed (Ob) ([3]; safener alone 20 g/ha): 0% | % visual injury, Ob [2]: 0% | % visual injury, observed (Ob) ([4]; safener alone 2.5 g/ha): 0% | % visual injury, observed (Ob) ([4]; safener alone 5 g/ha): 0% | % visual injury, observed (Ob) ([4]; safener alone 10 g/ha): 0% | % visual injury, observed (Ob) ([4]; safener alone 20 g/ha): 0% | % visual injury, Ob ([4]; alone, 35 g/ha): 0%
